The conditions of series [1]: reported by Harrap; cited from earlier work.
A further series deals with malignant tumor. Conditions: cited from earlier work.
Series [2] in a line: pharmacokinetic tests: Pt in blood and cumulative percentage dose in urine, cage wash and faeces after oral administration. The series is classed as in vivo, female Balb C^- mice. The conditions noted are these: oral, JM-8 at 50 mg/kg. On the procedure:
(§1) Additionally, the same compounds were tested for activity against ADJ/PC6A plasmacytoma grown subcutaneously in female Balb C^- mice following oral administration as a suspension in arachis oil. Dosage levels were at 100μ mole/kg of body weight for pharmacokinetic tests to establish the extent of absorption into the systemic circulation.
(§2) Results are presented in terms of concentration (μg/ml) of Pt in the blood and cumulative percentage dose in urine, cage wash and faeces, all after specified time intervals. Results for anti-tumor effect are expressed as LD50 (mg/kg), ED90 (mg/kg), and TI (LD50 /ED90). The figures for LD50 (the dose level causing 50% deaths) and ED90 (the dose level causing a 90% reduction in tumor size) are determined by administering dosage levels ranging from lethal to non-tumor inhibitory. The therapeutic index (TI) is an indication of the selectivity of the compound as an anti-tumor agent.

The test system of the next series is B16 melanoma. Kind of series: anti-tumor activity against B16 melanoma in BDF1 female mice, i.p. 9 daily doses. The series is classed as in vivo. More on the design: median survival time (MST): unit not given here. The conditions noted are these: for % T/C (MST/MST control×100) / median survival time (MST): 9 daily doses from Day 1; for number of mice alive (MA) / average weight change (AWC): 9 daily doses; for number of mice alive (MA): at Day 10; for average weight change (AWC): by Day 6. On the procedure: (§3) Compounds according to the invention were screened for anti-tumor activity against L1210 leukaemia and B16 melanoma in mice. The compounds were administered intraperitoneally as solutions or suspensions in water and "Tween" 80 as carrier to CDF1 male mice (L1210) and BDF1 female mice (B16). […] For each dose level, results are quoted in terms of median survival time (MST); the comparative effect (i.e. MST/MST control×100); average weight change (AWC) by Day 5 (L1210) or Day 6 (B16); and the number of mice alive (MA) at Day 5 (L1210) or Day 10 (B16).
(§4) Results were as follows for the compounds as prepared in Examples 3 and 4.
2. B16 (0.5 ml 10% BREI): treatment consisted of 9 daily doses beginning at Day 1.

Series [3] in a line: LD50 (dose level causing 50% deaths), oral administration. The series is classed as in vivo, female Balb C^- mice. The conditions noted are these: suspension in arachis oil. On the procedure:
as §1, §2

In another series the test system is ADJ/PC6A plasmacytoma. The series is described as follows: activity against ADJ/PC6A plasmacytoma grown subcutaneously in mice, oral administration. Format: in vivo, female Balb C^- mice. The conditions noted are these: for ED90 (dose level causing a 90% reduction in tumor size): suspension in arachis oil. On the procedure: as §1, §2
The subject of a further series is L1210 leukaemia. The series is described as follows: anti-tumor activity against L1210 leukaemia in CDF1 male mice, i.p. single dose Day 1. The series is classed as in vivo. Further details: median survival time (MST): unit not given here. Conditions: for % T/C (MST/MST control×100) / median survival time (MST): single dose Day 1; for number of mice alive (MA) / average weight change (AWC): single dose; for number of mice alive (MA): at Day 5; for average weight change (AWC): by Day 5. On the procedure:
as §3, §4
1. L1210 (1×10^6 cells): treatment consisted of single dose on Day 1.

These results are taken from patent US4687780A, “Anti-tumor compounds of platinum” (Johnson Matthey PLC, priority 1985, dated 1987).

With `N.N.O=C([O-])C(O)C(=O)[O-].[Pt+2]` [JM-5, diammine(2-hydroxymalonato)platinum(II)], in series [1], the screening results is on record as “only moderately promising on screening results”.
`[NH2][Pt]1([NH2])[O]C(=O)C2(CCC2)C(=O)[O]1` [JM-8, reference compound]: the “Phase I clinical trial outcome” value in the series on malignant tumor (Phase I, reported by Harrap) is “reasonably promising on a Phase I clinical trial”. Also, the “side-effects in Phase I clinical trial” value with malignant tumor (Phase I, reported by Harrap) was “myelosuppression and to a lesser extent vomiting remained troublesome”. Also, the “Blood conc. of Pt” value is on record as 2.4 μg/ml of whole blood in series [2] (1 hr); 1.7 μg/ml of whole blood in series [2] (2 hrs); 0.72 μg/ml of whole blood in series [2] (4 hrs); 0.63 μg/ml of whole blood in series [2] (7 hrs); 0.25 μg/ml of whole blood in series [2] (24 hrs); 0.25 μg/ml of whole blood in series [2] (48 hrs). In addition, the “Urine dose (cumulative %)” value in series [2] (24 hrs) was 10.3%; in series [2] (48 hrs), 10.8%. For the same molecule, the “% T/C (MST/MST control×100)” value with B16 melanoma (2 mg/kg) was 112%; in the series on B16 melanoma (4 mg/kg) it was 115%; with B16 melanoma (8 mg/kg), 150%; with B16 melanoma (16 mg/kg), 176%; in the series on B16 melanoma (32 mg/kg) it was 176%; with L1210 leukaemia (4 mg/kg) it was 100%. The “% T/C (MST/MST control×100)” value was found to be 121% in the series on L1210 leukaemia (8 mg/kg); 143% in the series with L1210 leukaemia (16 mg/kg); 171% in the series on L1210 leukaemia (32 mg/kg); 150% in the series with L1210 leukaemia (64 mg/kg); 86% with L1210 leukaemia (128 mg/kg). In addition, the “LD50 (dose level causing 50% deaths)” value in series [3] worked out at 235 mg/kg. The “therapeutic index TI (LD50/ED90)” value in the series on ADJ/PC6A plasmacytoma came out at 2.4. Besides, the “ED90 (dose level causing a 90% reduction in tumor size)” value with ADJ/PC6A plasmacytoma is listed as 99 mg/kg.
On to `CCC(C(=O)[O-])C(=O)[O-].N.N.[Pt+2]` [JM-10, diammine(2-ethylmalonato)-platinum(II)], for which the screening results in series [1] is reported as “only moderately promising on screening results”.
As to `N.N.[Cl][Pt][Cl]` [cisplatin, cis-diamminedichloroplatinum(II), reference compound], the “treatment of malignant tumor” value in the series with malignant tumor (certain forms of malignant tumor in humans) is recorded as “effective for the treatment of certain forms of malignant tumor in humans”. Besides, the “% T/C (MST/MST control×100)” value in the series with B16 melanoma (0.4 mg/kg) is 131%; with B16 melanoma (0.8 mg/kg), 164%; in the series with B16 melanoma (1.6 mg/kg) it was 187%; in the series with B16 melanoma (2.4 mg/kg), 231%; in the series on L1210 leukaemia (4 mg/kg), 146%; with L1210 leukaemia (6 mg/kg), 169%. In addition, the figures for the “% T/C (MST/MST control×100)” value with L1210 leukaemia (8 mg/kg) and in the series with L1210 leukaemia (10 mg/kg) were 192% and 123%, respectively. Besides, the “median survival time (MST)” value in the series on B16 melanoma (0.4 mg/kg) was found to be 25.5; with B16 melanoma (0.8 mg/kg), 32.0; in the series on B16 melanoma (1.6 mg/kg), 36.5; in the series with B16 melanoma (2.4 mg/kg), 45.0; in the series with L1210 leukaemia (4 mg/kg) it was 9.5; in the series on L1210 leukaemia (6 mg/kg), 11.0. In addition, the “median survival time (MST)” value in the series with L1210 leukaemia (8 mg/kg) was found to be 12.5; in the series on L1210 leukaemia (10 mg/kg), 8.0. The “number of mice alive (MA)” value was 10/10 in the series on B16 melanoma (0.4 mg/kg); 10/10 with B16 melanoma (0.8 mg/kg); 10/10 in the series with B16 melanoma (1.6 mg/kg); 10/10 in the series with B16 melanoma (2.4 mg/kg); 6/6 with L1210 leukaemia (4 mg/kg); 6/6 in the series with L1210 leukaemia (6 mg/kg). The “number of mice alive (MA)” value in the series on L1210 leukaemia (8 mg/kg) and in the series with L1210 leukaemia (10 mg/kg) was 6/6 each time. Besides, the “average weight change (AWC)” value is -0.9 g with B16 melanoma (0.4 mg/kg); -1.5 g with B16 melanoma (0.8 mg/kg); -3.1 g in the series with B16 melanoma (1.6 mg/kg); -3.9 g in the series with B16 melanoma (2.4 mg/kg); -0.8 g with L1210 leukaemia (4 mg/kg); -3.2 g with L1210 leukaemia (6 mg/kg). Moreover, the entries for the “average weight change (AWC)” value in the series with L1210 leukaemia (8 mg/kg) and with L1210 leukaemia (10 mg/kg) were -4.6 g and -4.7 g, respectively. Moreover, the “ED90 (dose level causing a 90% reduction in tumor size)” value in the series on ADJ/PC6A plasmacytoma is 24 mg/kg.
